# Earlier results as cited in patent US20060004050A1, “Compositions and methods for the prevention or treatment of pain and other nervous system disorders” (priority 2004, published 2006).
# Key:
# [1] = rat
# beta-adrenergic = conditions: L-form versus D-enantiomer
# [2] = in vivo
# [3] = system: calcium current of snail neurons
# [4] = system: spinal cord and descending neural pathways; conditions: rats
# [5] = in vivo; remark: listed apart in the source
# [6] = system: spinal nerve root action potentials; conditions: cats
structure (smiles),measurement,setting,value
"Cc1ccc(C(=O)C(C)CN2CCCCC2)cc1 (single isomer, unassigned; (-)) [(−)-tolperisone]",pharmacodynamic property of the isomer,[1],vasodilatory activity
CC(C)NCC(O)COc1cccc2ccccc12 (centres unmarked) [propranolol],potency relative to the D-enantiomer,beta-adrenergic,100 times
"O=C1CCC(N2C(=O)c3ccccc3C2=O)C(=O)N1 (single isomer, unassigned) [D-enantiomer of thalidomide, thalidomide]",effect when prescribed for morning sickness during pregnancy,[2],safe and effective sedative
"O=C1CCC(N2C(=O)c3ccccc3C2=O)C(=O)N1 (single isomer, unassigned) [L-enantiomer of thalidomide, thalidomide]",effect when prescribed for morning sickness during pregnancy,[2],potent teratogen
"Cc1ccc(C(=O)C(C)CN2CCCCC2)cc1 (racemic) [Tolperisone, 2,4′-dimethyl-3-piperidino-propiophenone]",membrane effect,tissue membrane,tissue membrane stabilizing properties
same,effect on calcium current,[3],inhibit calcium current dose-dependently
same,effect on segmental (limb) reflexes,[4],depress segmental (limb) reflexes
same,most serious adverse effect,[5],anaphylaxis
same,other frequently reported adverse effects,[5],"muscle weakness, muscle pain, headache, dizziness, and gastric complaints"
same,effect on ventral nerve root reflexes and dorsal nerve root reflex,[6],dose-dependently inhibit both ventral nerve root reflexes and the dorsal nerve root reflex
"Cc1ccc(C(=O)C(C)CN2CCCCC2)cc1 (single isomer, unassigned; (+)) [(+)-tolperisone]",pharmacodynamic property of the isomer,[1],more muscle-relaxant properties
